Measured values published in US20240307589A1, “LEPTIN RECEPTOR AFFINITY PEPTIDE AND USE THEREOF” (Dubu Biosciences, priority 2021, published 2024).
No end group written: not given here. *: point of attachment. FITC = O=C1OC2(c3ccc(O)cc3Oc3cc(O)ccc32)c2ccc(NC(=S)*)cc21

What was measured:
rat lung injury sites = test: Lung injury repair after implantation of peptide-bound collagen sponge (Masson's staining); type: in vivo; settings: 35 days after implantation, vs control groups, FIG. 7
From the text: After a CBD-affinity peptide and control peptides were implanted into rat lung injury sites according to the above method, lung tissues were taken out 35 days later and subjected to pathological identification.

rat lung injury site = test: Recruitment of endogenous MSCs to peptide-bound collagen sponge implanted into rat lung injury site (flow cytometry); type: in vivo; settings: rat lung defect, 12 h, 24 h or 48 h after implantation, vs control groups; FIGS. 6A to 6F
Method: Rats weighing about 150 g were anesthetized, intubated and subjected to partial resection on middle lobes of right lungs in the case of positive pressure ventilation of ventilators, where lung tissues with a size of about 0.5 cm*0.5 cm*0.3 cm were resected, and the collagen sponges which had been uniformly added dropwise with the CBD-affinity peptide or the control peptides and incubated for 2 h at 37° C. in advance were implanted into rat lung defect sites, respectively. After the rats were sacrificed after 12 h, 24 h or 48 h, respectively, the implanted collagen sponges were completely separated and taken out. The collagen sponges were dissolved with a collagenase, and cells adsorbed on the collagen sponges in vivo were separated and collected. Through identification of expression of CD45, CD44, CD71 and CD90 on surfaces of the cells, proportions of the numbers of MSCs adsorbed on the collagen sponges at the implantation sites were analyzed. The proportions that the MSCs accounted for in the cells digested from the collagen sponges were detected by flow cytometry.

human MSCs = test: Binding recovery of phage to human MSCs (elution and titration); type: cell-based; settings: vs M13KE negative control phage, FIG. 2A
Method: (§1) An HY7 phage monoclone and an M13KE negative control phage were amplified with reference to the method in Example 1 and titrated. The HY7 phage monoclone and the M13KE negative control phage were added to well plates containing human MSCs with a confluence pre-cultured to about 80%, and an unrelated human bone marrow stromal cell line HS-5 was set as a control. The HY7 phage monoclone and the M13KE negative control phage were subjected to binding and elution according to a step of screening phages to obtain an eluent of the HY7 phage binding to the target protein and an eluent of the M13KE negative control phage binding to the target protein, respectively. The eluent of the HY7 phage binding to the target protein and the eluent of the M13KE negative control phage binding to the target protein were titrated according to a phage titration method. The binding of the HY7 phage monoclone to the target molecule and the binding of the M13KE negative control phage to the target molecule were compared. […] FIG. 2A is a schematic diagram illustrating the binding recovery of an HY7 phage monoclone and an M13KE negative control phage to human MSCs, and FIG. 2B is a schematic diagram illustrating the binding recovery of an HY7 phage monoclone and an M13KE negative control phage to HS-5 cells.

rat MSCs = test: Binding of FITC-labeled peptide to rat MSCs by flow cytometry; type: cell-based; settings: FITC-labeled peptides, vs M7, FIG. 4
From the text: To evaluate the species specificity of the HY7 peptide and provide a basis for subsequent animal experiments, the binding of HY7 to rat MSCs was specifically verified. Rat bone marrow cells were acquired according to a conventional method and subjected to culture and identification, and rat MSCs were obtained. The binding of an FITC-HY7 peptide and an FITC-M7 peptide to the rat MSCs was detected according to the above flow cytometry detection method.

[1] = system: human bone marrow stromal cell line HS-5; test: Binding recovery of phage to control HS-5 cells (elution and titration); type: cell-based; settings: FIG. 2B
Method: as §1

Substance | repair effect at the tissue site (rat lung injury sites) | MSCs adsorbed to the collagen sponge (proportion of MSCs in cells digested from sponge) (rat lung injury site) | binding to surfaces of the MSCs (binding recovery) (human MSCs) | binding ability to the rat MSCs (rat MSCs) | binding to the control cells HS-5 (binding recovery) [1]
CBD-HY7: CBD (TKKTLRT) on the N-terminus of HY7 through a linker (GGGGS or GGG-K-FITC) (TKKTLRTGGGK(FITC)HGGVRLY) | better repair effect | can adsorb more MSCs to the collagen sponge in a short time |  |  | 
HGGVRLY (Leptin receptor affinity peptide) [HY7] |  |  | can specifically binds to surfaces of the MSCs | significantly stronger than that of M7 | does not bind
